Results from US7612064B2, “Sulfopyrroles” (Takeda Pharmaceutical Company Limited, priority 2003, dated 2009).

How the values were obtained:
[1] = Hoechst 33342 nuclear staining; assay type: cell-based; details: for Hoechst 33342 nuclear staining score, H460: H460 cells; for Hoechst 33342 nuclear staining score, HeLa: HeLa cells; for Hoechst 33342 nuclear staining score, Jily: Jily cells; for Hoechst 33342 nuclear staining score, Jurkat: Jurkat cells; for Hoechst 33342 nuclear staining score, MRC5: MRC5 cells;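 on all read-outs here: apoptotic nuclei scored 0 none 1 weak under 50% of cells 2 strong over 50% of cells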
Procedure: This assay is performed in 96 well tissue culture plates. Appropriate number of cells (adherent cells: 3-5*10^3, suspension cells: 8-10*10^3) are being seeded out in 80 μl complete medium. Adherent cells are incubated for 24 h for proper spreading out before addition of test compounds while suspension cells are immediately treated with test compounds after seeding out. The test compounds are added in 20 μl complete medium containing max 5% DMSO. […] […] The assay plates are then further incubated for 30 min and subsequently analyzed with a standard inverted fluorescence microscope.
The readout allows the determination of the fraction of apoptotic nuclei as well as other morphological criteria specific for apoptosis as a function of the treatment. The following scores are used: 0 relating to no activity, 1 relating to weak activity comprising less than 50% of the cells and score 2 relating to strong activity comprising more than 50% of the cells.

MRC5 = experiment: MTS proliferation assay; assay type: cell-based; details: MRC5, 72 h
Procedure: (§1) The assay is performed in 96 well tissue culture plates. […] The test compounds are added in 20 μl complete medium containing max 5% DMSO. The final compound concentrations in the assays are 10 μM, 3 μM, 1 μM and 0.3 μM, respectively. The assay plates are incubated for 72 h at culture conditions. The MTS reagent is prepared according to the manufacturer's protocol (Promega G1111). 20 μl MTS reagent are added to each well, the assay plates are quickly spun and incubated for another 3 h at culture conditions. Subsequently, the plates are shortly shacked and absorption measured with a microplate-reader at 492 nm.

HeLa = experiment: MTS proliferation assay; assay type: cell-based, human; details: 72 h
Procedure: as §1

Jurkat = experiment: MTS proliferation assay; assay type: cell-based, human; details: 72 h
Procedure: as §1

[2] = conc 0.1 (final concentrations in μM), 24 h or 48 h incubation
[3] = conc 0.3 (final concentrations in μM), 24 h or 48 h incubation
[4] = conc 1 (final concentrations in μM), 24 h or 48 h incubation
[5] = conc 3 (final concentrations in μM), 24 h or 48 h incubation
[6] = conc 10 (final concentrations in μM), 24 h or 48 h incubation

NC(=O)c1cncc(-c2cc(-c3ccc4c(c3)OCO4)n(S(=O)(=O)c3cccc(Cl)c3)c2)c1 [Example 75]
Hoechst 33342 nuclear staining score, H460 ([1]; conc 0.1): 0 | Hoechst 33342 nuclear staining score, H460 ([1]; conc 0.3): 0 | Hoechst 33342 nuclear staining score, H460 ([1]; conc 1): 0 | Hoechst 33342 nuclear staining score, H460 ([1]; conc 3): 0 | Hoechst 33342 nuclear staining score, HeLa ([1]; conc 0.1): 0 | Hoechst 33342 nuclear staining score, HeLa ([1]; conc 0.3): 0 | Hoechst 33342 nuclear staining score, HeLa ([1]; conc 1): 0 | Hoechst 33342 nuclear staining score, HeLa ([1]; conc 3): 0 | Hoechst 33342 nuclear staining score, Jily ([1]; conc 0.1): 0 | Hoechst 33342 nuclear staining score, Jily ([1]; conc 0.3): 0 | Hoechst 33342 nuclear staining score, Jily ([1]; conc 1): 0 | Hoechst 33342 nuclear staining score, Jily ([1]; conc 3): 0 | Hoechst 33342 nuclear staining score, Jurkat ([1]; conc 0.1): 0 | Hoechst 33342 nuclear staining score, Jurkat ([1]; conc 0.3): 0 | Hoechst 33342 nuclear staining score, Jurkat ([1]; conc 1): 0 | Hoechst 33342 nuclear staining score, Jurkat ([1]; conc 3): 0 | Hoechst 33342 nuclear staining score, MRC5 ([1]; conc 0.1): 0 | Hoechst 33342 nuclear staining score, MRC5 ([1]; conc 0.3): 0 | Hoechst 33342 nuclear staining score, MRC5 ([1]; conc 1): 0 | Hoechst 33342 nuclear staining score, MRC5 ([1]; conc 3): 0 | Hoechst 33342 nuclear staining score, PBLs ([1]; conc 0.1): 0 | Hoechst 33342 nuclear staining score, PBLs ([1]; conc 0.3): 0 | Hoechst 33342 nuclear staining score, PBLs ([1]; conc 1): 0 | Hoechst 33342 nuclear staining score, PBLs ([1]; conc 3): 0 | IC50 (MRC5): > 1 µM | IC50 (HeLa): > 1 µM | IC50 (Jurkat): > 1 µM

CCN1CCCC1CNCc1cc(-c2ccc3c(c2)OCO3)n(S(=O)(=O)c2ccc(C)cc2)c1 (stereo not shown) [Example 21]
Hoechst 33342 nuclear staining score, HeLa [1, 2]: 0 | Hoechst 33342 nuclear staining score, HeLa [1, 3]: 0 | Hoechst 33342 nuclear staining score, HeLa [1, 4]: 0 | Hoechst 33342 nuclear staining score, HeLa [1, 5]: 0 | Hoechst 33342 nuclear staining score, Jurkat [1, 2]: 0 | Hoechst 33342 nuclear staining score, Jurkat [1, 3]: 0 | Hoechst 33342 nuclear staining score, Jurkat [1, 4]: 0 | Hoechst 33342 nuclear staining score, Jurkat [1, 5]: 0 | IC50 (MRC5): > 1 µM | IC50 (HeLa): > 1 µM | IC50 (Jurkat): > 1 µM

Cc1ccc(S(=O)(=O)n2cc(CN3CCN(c4ccccn4)CC3)cc2-c2ccc3c(c2)OCO3)cc1 [Example 32]
Hoechst 33342 nuclear staining score, HeLa [1, 2]: 0 | Hoechst 33342 nuclear staining score, HeLa [1, 3]: 0 | Hoechst 33342 nuclear staining score, HeLa [1, 4]: 0 | Hoechst 33342 nuclear staining score, HeLa [1, 5]: 0 | Hoechst 33342 nuclear staining score, Jurkat [1, 2]: 0 | Hoechst 33342 nuclear staining score, Jurkat [1, 3]: 0 | Hoechst 33342 nuclear staining score, Jurkat [1, 4]: 0 | Hoechst 33342 nuclear staining score, Jurkat [1, 5]: 0 | IC50 (MRC5): > 1 µM | IC50 (HeLa): > 1 µM | IC50 (Jurkat): > 1 µM

Cc1ccc(S(=O)(=O)n2cc(CNc3ccc(-n4ccnc4)cc3)cc2-c2ccc3c(c2)OCO3)cc1 [Example 40]
Hoechst 33342 nuclear staining score, HeLa [1, 3]: 0 | Hoechst 33342 nuclear staining score, HeLa [1, 4]: 0 | Hoechst 33342 nuclear staining score, HeLa [1, 5]: 0 | Hoechst 33342 nuclear staining score, HeLa [1, 6]: 0 | Hoechst 33342 nuclear staining score, Jurkat [1, 3]: 0 | Hoechst 33342 nuclear staining score, Jurkat [1, 4]: 0 | Hoechst 33342 nuclear staining score, Jurkat [1, 5]: 0 | Hoechst 33342 nuclear staining score, Jurkat [1, 6]: 0 | IC50 (MRC5): > 1 µM | IC50 (HeLa): > 1 µM | IC50 (Jurkat): > 1 µM

Cc1ccc(S(=O)(=O)n2cc(CNCCN3CCCCC3)cc2-c2ccc3c(c2)OCO3)cc1 [Example 18]
Hoechst 33342 nuclear staining score, HeLa [1, 2]: 0 | Hoechst 33342 nuclear staining score, HeLa [1, 3]: 0 | Hoechst 33342 nuclear staining score, HeLa [1, 4]: 0 | Hoechst 33342 nuclear staining score, HeLa [1, 5]: 0 | Hoechst 33342 nuclear staining score, Jurkat [1, 2]: 0 | Hoechst 33342 nuclear staining score, Jurkat [1, 3]: 0 | Hoechst 33342 nuclear staining score, Jurkat [1, 4]: 0 | Hoechst 33342 nuclear staining score, Jurkat [1, 5]: 0 | IC50 (MRC5): > 1 µM | IC50 (HeLa): > 1 µM | IC50 (Jurkat): > 1 µM

CCN1CCN(c2ccc(NCc3cc(-c4ccc5c(c4)OCO5)n(S(=O)(=O)c4ccc(C)cc4)c3)cc2)CC1 [Example 37]
Hoechst 33342 nuclear staining score, HeLa [1, 3]: 0 | Hoechst 33342 nuclear staining score, HeLa [1, 4]: 0 | Hoechst 33342 nuclear staining score, HeLa [1, 5]: 0 | Hoechst 33342 nuclear staining score, HeLa [1, 6]: 0 | Hoechst 33342 nuclear staining score, Jurkat [1, 3]: 0 | Hoechst 33342 nuclear staining score, Jurkat [1, 4]: 0 | Hoechst 33342 nuclear staining score, Jurkat [1, 5]: 0 | Hoechst 33342 nuclear staining score, Jurkat [1, 6]: 0 | IC50 (MRC5): > 1 µM | IC50 (HeLa): > 1 µM | IC50 (Jurkat): > 1 µM
